Like-named read-outs stand apart in the source and are kept apart here.
Experiments:
HeLa cells = test: HeLa Cytotoxicity Assay (Cell Titer Glo viability); type: cell-based
Method: HeLa Cytotoxicity Assay Protocol: Day 0: HeLa cells (ATCC, HeLa CCL-2) are grown to 95% confluence in DMEM, 10% FBS/Pen/Strep/L-Glutamine. Day 1: Plate cells (1000 per well) in 40 μl culturing media using Corning 384-well plates (3570), incubate in standard TC conditions (5% CO2, 95% humidity, 37 degrees C.) for 24 hours. Day 2: Dilute each concentration of a half-log serial dilution of compound (1 mM-100 nM) 1:200 in culturing media and add 10 μl (50 μl total volume) of that dilution to designated wells (8 replicates per concentration). The final dilution will be 1000×(1 μM-100 pM). Day 4: Remove plate from incubator to cool for 20 minutes to room temperature. Add 40 μl of a 25% Promega Cell Titer Glo solution (diluted 1:3 with room temperature PBS) with Thermo combi or multichannel and incubate for 10 minutes. Read on Perkin-Elmer EnVision with US LUM settings for 0.1 second per well.
(§1) Compounds as shown were tested against various cells lines in vitro according to the methods described herein. Cells are plated in 384-well format in a total volume of 40 μl. Indicated compound concentrations were added 24 hrs after plating the cells. After 48 hrs cell viability was determined using Cell Titer Glo® Luminescent Cell Viability Assay.
as §1, with “Known PDE3 inhibitors” for “Compounds”, “shown below” for “shown”

A549 cells = test: A549 Cytotoxicity Assay (Cell Titer Glo viability); type: cell-based
Method: A549 Cytotoxicity Assay Protocol. Day 0: A549 cells (ATCC, A549 CCL-185) are grown to 95% confluence in RPMI, 10% FBS/Pen/Strep/L-Glutamine. Day 1: Plate cells (1000 per well) in 40 μl culturing media using Corning 384-well plates (3570), incubate in standard TC conditions (5% CO2, 95% humidity, 37° C.) for 24 h. Day 2: Dilute each concentration of a half-log serial dilution of compound (1 mM-100 nM) 1:200 in culturing media and add […] (50 μl total volume) of that dilution to designated wells (8 replicates per concentration). The final dilution will be 1000×([…]). Day 4: Remove plate from incubator to cool for 20 minutes to room temperature. Add 40 μl of a 25% Promega Cell Titer Glo solution (diluted 1:3 with room temperature PBS) with Thermo combi or multichannel and incubate for 10 min. Read on Perkin-Elmer EnVision with US LUM settings for 0.1 second per well.
A549 Assay Protocol. Day 0: A549 cells (ATCC) are grown in a Triple flask (NUNC) to ˜95% confluence (TrypLE Phenol Red free) and resuspended for dispensing at 25,000 cells/mL of DMEM, 10% FBS/Pen/Strep/L-Glutamine (using the TAP Compact SelecT automated cell culture system). Day 1: Plate cells at 1000 per well in 40 uL media (DMEM/10% FBS/Pen/Strep/L-Glutamine) using Corning 8867BC 384 well plates; incubate in standard TC conditions (5% CO2; 95% humidity, 37° C.) for 24 hours (Compact SelecT). Day 2: Add 100 nL compound per well at dose into 40 uL assay volume using a pin tool (CyBi Well). Pin 100 nL cytotoxic compounds, mitoxantrone (CID 4212) to positive control wells to a final concentration of 10 μM (100 nL 4 mM DMSO stock). Incubate for […] at 37° C. in Liconic incubator, 95% humidity 5% CO2. Day 4: Remove plate from incubator, cool for 15 minutes to room temperature; add 20 μL 50% Promega CellTiterGlo (diluted 1:1 with PBS, pH 7.4) with Thermo Combi. Incubate at room temperature for 5 minutes. Read plates on Perkin-Elmer EnVision with standard luminescence settings for 0.1 sec per well.
as §1
as §1, with “Known PDE3 inhibitors” for “Compounds”, “shown below” for “shown”

[1] = Homo sapiens, HeLa, Mean ± SD (n = 3), read-out: Potency (EC50 nM) HeLa
[2] = Homo sapiens, A549, Mean ± SD (n = 3), read-out: Potency (EC50 nM) A549
[3] = Homo sapiens, HeLa, n = 2, read-out: Potency (EC50) HeLa
[4] = Homo sapiens, A549, n = 2, read-out: Potency (EC50) A549
[5] = Homo sapiens, HeLa, 48 h, Cell Titer Glo, read-out: EC50 HeLa
[6] = Homo sapiens, A549, 48 hrs, Cell Titer Glo, read-out: EC50 A549
[7] = 48 hrs, Cell Titer Glo, read-out: EC50 HeLa
[8] = Mean ± SD (n = 3), read-out: Potency (EC50 nM) HeLa

Compound	EC50 (HeLa cells; [1]) [nM]	EC50 (A549 cells; [2]) [nM]	also measured
CC(=O)Nc1ccc(C2=NNC(=O)CC2C)cc1 (centres unmarked) [drawing 173]	> 1000	> 10000	
CCCc1ccc(C2=NNC(=O)C[C@H]2C)cc1	16 ± 1	> 10000	
CCN(CC)c1ccc(-c2nc(C(C)C)no2)cc1[N+](=O)[O-]			EC50 (HeLa cells; [3]): > 10000 nM; EC50 (A549 cells; [4]): > 10000 nM
CC(=O)Nc1ccc(C2=NNC(=O)C[C@H]2C)cc1[N+](=O)[O-] [drawing 143]			EC50 (HeLa cells; [5]): 0.00608 nM; EC50 (A549 cells; [6]): > 10000 nM
CCNc1ccc(C2=NNC(=O)C[C@H]2C)cc1	71 ± 7	> 10000	
CC(=O)Nc1ccc(C2=NNC(=O)CC2C)cc1 (centres unmarked) [drawing 139]			EC50 (HeLa cells; [7]): > 10000 nM; EC50 (A549 cells; 48 hrs, Cell Titer Glo, read-out: EC50 A549): > 10000 nM
CCN1N=C(c2ccc(N(CC)CC)cc2)[C@H](C)CC1=O [drawing 160]	> 1000	> 10000	
CC(=O)Nc1ccc(C2=NNC(=O)C[C@H]2C)cc1Cl	30	> 10000	
C[C@H]1CC(=O)NN=C1c1ccc(F)c(F)c1	> 1000	> 10000	
CCN(CC)c1ccc(C2=NNC(=O)CC2C)cc1[N+](=O)[O-] (centres unmarked) [drawing 154]		> 10000	
C[C@@H]1CC(=O)NN=C1c1ccc(N2CCCCC2)cc1	3.9 ± 0.6	> 10000	
C[C@@H]1CC(=O)NN=C1c1ccc(-c2cncnc2)cc1 [drawing 197]	13 ± 2	> 10000	
Cc1nc2ccc(C3=NNC(=O)C[C@H]3C)cc2[nH]1	> 1000	> 10000	
CC1CC(=O)NN=C1c1ccc(N2CCOCC2)c(F)c1 (centres unmarked)	2.8 ± 0.7	> 10000	
CC1CC(=O)NN=C1c1cccs1 (centres unmarked)			EC50 (HeLa cells; [3]): > 10000 nM; EC50 (A549 cells; [4]): > 10000 nM
C[C@@H]1CC(=O)NN=C1c1ccc(N2CCCOC2=O)cc1	> 1000	> 10000	
CC1CC(=O)NN=C1c1ccc(F)c(F)c1 (centres unmarked)	64 ± 3	> 10000	
CC1CC(=O)N(c2ccccc2)N=C1c1ccc(Cl)cc1 (centres unmarked)			EC50 (HeLa cells; [3]): > 10000 nM; EC50 (A549 cells; [4]): > 10000 nM
C[C@@H]1CC(=O)NN=C1c1ccc(N2CCCC2=O)cc1 [drawing 183]			EC50 (HeLa cells; [8]): > 1000 nM; EC50 (A549 cells; Mean ± SD (n = 3), read-out: Potency (EC50 nM) A549): > 10000 nM
CCN(CC)c1ccc(C2=NNC(=O)CC2C)cc1N (centres unmarked)	240 ± 60	> 10000	
CCN(CC)c1ccc(C2=NNC(=O)C2(C)C)cc1	> 1000	> 10000	

Compound	EC50 (HeLa cells; [1]) [nM]	EC50 (A549 cells; [2]) [nM]	also measured
CC1(C)C(=O)NN=C1c1ccc(N2CCOCC2)cc1	> 1000	> 10000	
CC1CC(=O)NN=C1c1ccc(N2CCOCC2)cc1 (centres unmarked)	36 ± 9	> 10000	
C/C=C/c1ccc(C2=NNC(=O)C[C@H]2C)cc1	8.8 ± 1.1	> 10000	
CC1CC(=O)NN=C1c1ccc(F)cc1 (centres unmarked)	410 ± 270	> 10000	
C[C@H]1CC(=O)NN=C1c1ccc(N2CCOCC2)c(F)c1	> 1000	> 10000	
CCN(CC)c1ccc(C2=NNC(=O)C[C@H]2C)cc1[N+](=O)[O-] [drawing 155]	3.8 ± 1.1	> 10000	
CC(=O)Nc1ccc(C2=NNC(=O)CC2C)cc1 (centres unmarked) [drawing 148]			EC50 (HeLa cells; [7]): > 1000 nM; EC50 (A549 cells; [6]): > 10000 nM
C[C@@H]1CC(=O)NN=C1c1ccc(Cl)cc1	33 ± 5	> 10000	
C[C@@H]1CC(=O)NN=C1c1ccc(-n2cnnc2)cc1	> 1000	> 10000	
CC(=O)Nc1ccc(-c2n[nH]c(=O)cc2C)cc1	> 1000	> 10000	
CCN(CC)c1ccc(C2=NNC(=O)CC2C)cc1 (centres unmarked)	8.8 ± 2.3	> 10000	
Cc1cc(=O)[nH]nc1-c1ccc(N)cc1 [drawing 199]	> 1000	> 10000	
C[C@@H]1CC(=O)NN=C1c1ccc(N2CCN(C)CC2)cc1	310 ± 120	> 10000	
C[C@@H]1CC(=O)NN=C1c1ccc(C2CCCCC2)cc1 [drawing 196]	7.7 ± 1.3	> 10000	
CC1CC(=O)NN=C1c1ccc(N2CCN(C(=O)Cc3ccc(Cl)cc3Cl)CC2)cc1 (centres unmarked)			EC50 (HeLa cells; [3]): > 10000 nM; EC50 (A549 cells; [4]): > 10000 nM
O=C1CC(c2ccccc2)=NN1			EC50 (HeLa cells; [3]): > 10000 nM; EC50 (A549 cells; [4]): > 10000 nM
CC1(C)C(=O)NN=C1c1ccc(N)cc1	> 1000	> 10000	
CC(=O)Nc1ccc(C2=NNC(=O)C[C@H]2C)cc1 [drawing 144]			EC50 (HeLa cells; [5]): > 10000 nM; EC50 (A549 cells; [6]): > 10000 nM
CCN(CC)c1ccc(C2=NNC(=O)CC2C)cc1NC(C)=O (centres unmarked)	> 1000	> 10000	
C[C@@H]1CC(=O)NN=C1c1ccc(N2CCOCC2)cc1 [drawing 164]	13 ± 2	> 10000	
C[C@@H]1CC(=O)NN=C1c1ccc(N)c(Br)c1			EC50 (HeLa cells; [5]): > 10000 nM; EC50 (A549 cells; [6]): > 10000 nM

Compound	EC50 (HeLa cells; [1]) [nM]	EC50 (A549 cells; [2]) [nM]	also measured
C[C@@H]1CC(=O)NN=C1c1ccc(N2CCCCS2(=O)=O)cc1	330 ± 6	> 10000	
CC(=O)Nc1ccc(C2=NNC(=O)C[C@H]2C)cc1Br [drawing 146]			EC50 (HeLa cells; [5]): 42.1 nM; EC50 (A549 cells; [6]): > 10000 nM
CC(=O)Nc1ccc(C2=NNC(=O)C[C@H]2C)cc1F	> 1000	> 10000	
CC(=O)Nc1ccc(C2=NNC(=O)C[C@H]2C)cc1Br [drawing 175]	21 ± 1	> 10000	
C[C@@H]1CC(=O)NN=C1c1ccc(F)c(F)c1 [drawing 190]	22 ± 5	> 10000	
CC1CC(=O)NN=C1c1ccc(C2=CCCCC2)cc1 (centres unmarked)	2.2 ± 0.4	> 10000	
CCNc1ccc(C2=NNC(=O)C[C@H]2C)cc1[N+](=O)[O-] [drawing 156]	1.1 ± 0.5	> 10000	
CC(=O)N1CCN(c2ccc(C3=NNC(=O)C[C@H]3C)cc2F)CC1	> 1000	> 10000	
CCN(CC)c1ccc(-c2n[nH]c(=O)cc2C)cc1 [drawing 200]	> 1000	> 10000	
Cc1ccc(CCC(=O)N2CCN(c3ccc(C4=NNC(=O)CC4C)cc3)CC2)cc1 (centres unmarked)			EC50 (HeLa cells; [3]): > 10000 nM; EC50 (A549 cells; [4]): > 10000 nM
CC(=O)Nc1ccc(C2=NNC(=O)C[C@H]2C)cc1[N+](=O)[O-] [drawing 176]	4.9 ± 1.1	> 10000	
C[C@@H]1CC(=O)NN=C1c1ccccc1	430 ± 50	> 10000	
CC1(C)C(=O)NN=C1c1ccc(Cl)cc1	> 1000	> 10000	
CCN(CC)c1ccc(C2=NNC(=O)C[C@H]2C)cc1	3.8 ± 0.8	> 10000	
C[C@@H]1CC(=O)NN=C1c1ccc(N2CCCC2=O)cc1 [drawing 182]		> 10000	EC50 (HeLa cells; [8]): 140 ± 50 nM
CCN(CC)c1ccc(-c2n[nH]c(=O)cc2C)cc1 [drawing 150]			EC50 (HeLa cells; [5]): > 1000 nM; EC50 (A549 cells; [6]): > 10000 nM
CC(=O)Nc1ccc(C2=NNC(=O)C[C@H]2C)cc1N	> 1000	> 10000	
O=C1CC2CCc3cc(N4CCOCC4)ccc3C2=NN1 (centres unmarked)	> 1000	> 10000	
C#Cc1cc(C2=NNC(=O)C[C@H]2C)ccc1NC(C)=O	65 ± 10	> 10000	
C[C@@H]1CC(=O)NN=C1c1ccc(N2CCOCC2)c(F)c1 [drawing 166]	1.6 ± 0.2	> 10000	
CC(=O)Nc1ccc(C2=NNC(=O)C[C@H]2C)cc1C(C)=O	130 ± 10	> 10000	
